Values quoted from earlier work in patent publication US9192579B2, “Sustained release drug delivery devices, methods of use, and methods of manufacturing thereof” (pSivida US, Inc., priority 2000, dated 2015).

Tested on: CMV retinitis
Conditions: intravitreal injections of 200 to 400 μg once or twice weekly, AIDS patients

Nc1nc(O)c2ncn(COC(CO)CO)c2n1 [GCV, ganciclovir]
effect on CMV retinitis: temporary remission
